# Legend:
# S1P1-GFP (U2OS) = S1P1-GFP (U2OS) (Homo sapiens, UniProt P21453); assay: receptor internalization, imaging; assay type: cell-based; settings: agonist; […] min, […]°C
# ApoM-Fc = ApoM-Fc (Homo sapiens, UniProt O95445); assay: intrinsic Trp fluorescence quenching; assay type: binding
# ApoM-Fc, sequence (O95445 20-188 limits assumed): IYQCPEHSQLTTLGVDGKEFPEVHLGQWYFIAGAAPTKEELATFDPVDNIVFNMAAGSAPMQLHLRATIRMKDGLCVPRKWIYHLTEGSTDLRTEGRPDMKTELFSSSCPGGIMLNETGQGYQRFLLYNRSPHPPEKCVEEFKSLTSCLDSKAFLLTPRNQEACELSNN
# S1P1-GFP (U2OS), sequence (P21453 whole entry): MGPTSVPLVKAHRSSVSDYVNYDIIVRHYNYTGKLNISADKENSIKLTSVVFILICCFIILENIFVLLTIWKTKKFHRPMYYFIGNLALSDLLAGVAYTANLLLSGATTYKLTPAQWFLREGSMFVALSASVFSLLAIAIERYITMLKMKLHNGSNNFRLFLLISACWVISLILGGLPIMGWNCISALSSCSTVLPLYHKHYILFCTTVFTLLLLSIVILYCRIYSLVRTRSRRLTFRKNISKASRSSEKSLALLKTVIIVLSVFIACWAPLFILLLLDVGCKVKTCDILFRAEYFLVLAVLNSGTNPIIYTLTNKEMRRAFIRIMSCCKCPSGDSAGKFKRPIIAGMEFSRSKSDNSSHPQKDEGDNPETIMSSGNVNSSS
EC50 (ApoM-Fc) [nM],SMILES,"receptor internalization, imaging (S1P1-GFP (U2OS))"
,CCCCCCCCc1ccc(CCC(N)(CO)COP(=O)(O)O)cc1 (centres unmarked) [FTY720-P],"lower than that induced by FTY720-P, a potent and irreversible inducer of S1P1 endocytosis"
~220,CCCCCCCCCCCCC/C=C/[C@@H](O)[C@@H](N)COP(=O)(O)O [S1P],
